Results: US10040806B2, “Microbiocidally active benzoxaboroles” (Syngenta Participations AG, priority 2014, dated 2018)

How the values were obtained:
[1] = system: Mycosphaerella graminicola (Septoria tritici); test: Mycosphaerella graminicola (Septoria tritici)/liquid culture (Septoria blotch); type: cell-based; conditions: Zymoseptoria tritici, liquid culture, PDB, inhibition of growth determined photometrically 4-5 days after application, read-out: disease control
[2] = system: Mycosphaerella arachidis (Cercospora arachidicola); test: Mycosphaerella arachidis (Cercospora arachidicola)/liquid culture (early leaf spot); type: cell-based; conditions: liquid culture, PDB, inhibition of growth determined photometrically 4-5 days after application, read-out: disease control
Pythium ultimum = test: Pythium ultimum/liquid culture (seedling damping off); type: cell-based; conditions: Globisporangium ultimum, liquid culture, potato dextrose broth, inhibition of growth determined photometrically 2-3 days after application, read-out: disease control
[3] = system: Monographella nivalis (Microdochium nivale); test: Monographella nivalis (Microdochium nivale)/liquid culture (foot rot cereals); type: cell-based; conditions: liquid culture, PDB, inhibition of growth determined photometrically 4-5 days after application, read-out: disease control

melting point | Compound | inhibition of growth at 20 ppm [1] | inhibition of growth at 20 ppm [2] | inhibition of growth at 20 ppm (Pythium ultimum) | inhibition of growth at 20 ppm [3]
97 to 100 °C | CCOc1cc2c(cc1C)COB2O [Compound 38, 6-ethoxy-1-hydroxy-5-methyl-3H-2,1-benzoxaborole] | ≥ 80% | ≥ 80% | ≥ 80% | ≥ 80%
147 to 149 °C | OB1OCc2cc3c(cc21)OC(F)(F)O3 [Compound 1] | ≥ 80% | ≥ 80% | ≥ 80% | ≥ 80%
194 to 195 °C | OB1OCc2cc(Cl)c(O)cc21 [Compound 6, 5-chloro-1-hydroxy-3H-2,1-benzoxaborol-6-ol] | ≥ 80% | ≥ 80% | ≥ 80% | ≥ 80%
109 to 111 °C | CCOc1c(Cl)cc2c(c1Cl)B(O)OC2 [Compound 95, 5,7-dichloro-6-ethoxy-1-hydroxy-3H-2,1-benzoxaborole] | ≥ 80% | ≥ 80% | ≥ 80% | ≥ 80%
174 to 176 °C | OB1OCc2cc(Cl)c(O)c(Cl)c21 [Compound 94, 5,7-dichloro-1-hydroxy-3H-2,1-benzoxaborol-6-ol] | ≥ 80% | ≥ 80% | ≥ 80% | ≥ 80%

Further lines, the compound ahead of its results:

Compound | melting point | inhibition of growth at 20 ppm [1] | inhibition of growth at 20 ppm [2] | inhibition of growth at 20 ppm (Pythium ultimum) | inhibition of growth at 20 ppm [3]
CCOc1cc2c(cc1Cl)COB2O [Compound 9, 5-chloro-6-ethoxy-1-hydroxy-3H-2,1-benzoxaborole] | 146 to 148 °C | ≥ 80% | ≥ 80% | ≥ 80% | ≥ 80%
COc1cc(Cl)cc2c1B(O)OC2 [Compound 104, 5-chloro-1-hydroxy-7-methoxy-3H-2,1-benzoxaborole] | 146 to 148 °C | ≥ 80% | ≥ 80% | ≥ 80% | ≥ 80%
COc1cc2c(cc1Cl)COB2O [Compound 5, 5-chloro-1-hydroxy-6-methoxy-3H-2,1-benzoxaborole] | – | ≥ 80% | ≥ 80% | ≥ 80% | ≥ 80%
